According to patent US20250034110A1, “LPAR1 ANTAGONISTS AND USES THEREOF” (Pipeline Therapeutics, Inc., priority 2021, published 2025):
Like-named read-outs stand apart in the source and are kept apart here.

Biological target: human LPAR1 (Homo sapiens, UniProt Q92633)
Experiment: In vitro functional assay of lysophosphatidic acid receptor 1 activity (calcium flux)
Assay type: cell-based
[1] = B103 cells stably expressing human LPAR1, calcium flux (Fluo-4 NW) after lysophosphatidic acid (18:1) at EC80, 100 pM to 10 μM, read-out: LPAR1 IC50

human LPAR1, sequence (Q92633 whole entry): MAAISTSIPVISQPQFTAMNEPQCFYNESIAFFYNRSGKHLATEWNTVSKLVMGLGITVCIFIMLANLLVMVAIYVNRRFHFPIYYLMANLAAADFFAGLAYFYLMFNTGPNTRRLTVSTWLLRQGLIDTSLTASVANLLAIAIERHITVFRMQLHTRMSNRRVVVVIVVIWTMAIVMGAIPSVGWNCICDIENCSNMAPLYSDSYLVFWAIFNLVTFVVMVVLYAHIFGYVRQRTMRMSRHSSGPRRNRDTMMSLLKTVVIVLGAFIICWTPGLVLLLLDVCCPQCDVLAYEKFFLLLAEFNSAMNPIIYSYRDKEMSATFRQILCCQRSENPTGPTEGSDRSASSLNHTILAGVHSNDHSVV

| SMILES | IC50 [1] [nM] | IC50 (LPAR1 IC50) [nM] |
| --- | --- | --- |
| Cc1ccc(NC(=O)N(c2ccccc2C(C)C)C2CC3(CC(C(=O)O)C3)C2)c(OC(F)F)n1 (stereo not drawn) [Example 229] | 10 to 100 |  |
| CC(C)c1ccccc1N(C(=O)Nc1ccc(C2CC2)nc1OC(F)F)[C@H]1CC[C@H](C(=O)O)CC1 [Example 232] | 10 to 100 |  |
| COc1ccc(NC(=O)N(c2ccccc2C(C)C)C2CC3(CC(C(=O)O)C3)C2)c(OC(F)F)n1 (stereo not drawn) [Example 233] | 10 to 100 |  |
| COc1ccc(NC(=O)N(CC23CC(C(=O)O)(C2)C3(F)F)c2ccccc2C(C)C)c(OC(F)F)n1 [Example 234] | 10 to 100 |  |
| Cc1ccc(NC(=O)N(CC23CC(C(=O)O)(C2)C3(F)F)c2ccccc2C(C)C)c(OC(F)F)n1 [Example 235] | 10 to 100 |  |
| Cc1ccc(NC(=O)N(c2ccccc2C(C)C)C2CCC3(CC2)COC3)c(OC(F)F)n1 [Example 236, 3-(2-(difluoromethoxy)-6-methylpyridin-3-yl)-1-(2-isopropylphenyl)-1-(2-oxaspiro[3.5]nonan-7-yl)urea] | 100 to 1000 |  |
| Cc1ccc(NC(=O)N(c2ccccc2C(C)C)C2CCC(F)(F)CC2)c(OC(F)F)n1 [Example 237, 1-(4,4-difluorocyclohexyl)-3-(2-(difluoromethoxy)-6-methylpyridin-3-yl)-1-(2-isopropylphenyl)urea] | 100 to 1000 |  |
| Cc1ccc(NC(=O)N(c2ccccc2C(C)C)[C@H]2CC[C@@H](C(C)(C)O)CC2)c(OC(F)F)n1 [Example 238, 3-(2-(difluoromethoxy)-6-methylpyridin-3-yl)-1-((1s,4s)-4-(2-hydroxypropan-2-yl)cyclohexyl)-1-(2-isopropylphenyl)urea] | 100 to 1000 |  |
| Cc1ccc(NC(=O)N(c2ccccc2C(C)C)[C@H]2CC[C@H](O)CC2)c(OC(F)F)n1 [Example 239, 3-(2-(difluoromethoxy)-6-methylpyridin-3-yl)-1-((1r,4r)-4-hydroxycyclohexyl)-1-(2-isopropylphenyl)urea] | 100 to 1000 |  |
| Cc1ccc(NC(=O)N(c2ccccc2C(C)C)[C@H]2CC[C@@H](C#N)CC2)c(OC(F)F)n1 [Example 240, 1-((1s,4s)-4-cyanocyclohexyl)-3-(2-(difluoromethoxy)-6-methylpyridin-3-yl)-1-(2-isopropylphenyl)urea] | 100 to 1000 |  |
| Cc1ccc(NC(=O)N(c2ccccc2C(C)C)[C@H]2CC[C@H](C#N)CC2)c(OC(F)F)n1 [Example 241, 1-((1r,4r)-4-cyanocyclohexyl)-3-(2-(difluoromethoxy)-6-methylpyridin-3-yl)-1-(2-isopropylphenyl)urea] | 100 to 1000 |  |
| Cc1ccc(NC(=O)N(c2ccccc2C(C)C)[C@H]2CC[C@@H](CO)CC2)c(OC(F)F)n1 [Example 242] | 100 to 1000 |  |
| Cc1ccc(NC(=O)N(c2ccccc2C(C)C)C2CCC(=O)CC2)c(OC(F)F)n1 [Example 243] | 100 to 1000 |  |
| Cc1ccc(NC(=O)N(c2ccccc2C(C)C)[C@H]2CC[C@@H](C=O)CC2)c(OC(F)F)n1 [Example 244] | > 1000 |  |
| Cc1ccc(NC(=O)N(c2ccccc2C(C)C)[C@H]2CC[C@@H](C(F)F)CC2)c(OC(F)F)n1 [Example 245, 3-(2-(difluoromethoxy)-6-methylpyridin-3-yl)-1-((1s,4s)-4-(difluoromethyl)cyclohexyl)-1-(2-isopropylphenyl)urea] | > 1000 |  |
| CC(=O)N1CCC(N(C(=O)Nc2cncc(F)c2)c2ccccc2C(C)C)CC1 [Example 246] |  | > 1000 |
| Cc1ccc(NC(=O)N(c2ccccc2C(C)C)[C@H]2CC[C@H](CC(C)(C)O)CC2)c(OC(F)F)n1 [Example 247, 3-(2-(difluoromethoxy)-6-methylpyridin-3-yl)-1-((1r,4r)-4-(2-hydroxy-2-methylpropyl)cyclohexyl)-1-(2-isopropylphenyl)urea] | 10 to 100 |  |
| Cc1ccc(NC(=O)N(c2ccccc2C(C)C)[C@H]2CC[C@H](c3nnn[nH]3)CC2)c(OC(F)F)n1 [Example 248] | 100 to 1000 |  |
| Cc1ccc(NC(=O)N(c2ccccc2C(C)C)C2CC3(CCC(C(=O)O)CC3)C2)c(OC(F)F)n1 (stereo not drawn) [Example 249] | 10 to 100 |  |
| CC(=O)N1CC2(CCC(N(C(=O)Nc3ccc(C)nc3OC(F)F)c3ccccc3C(C)C)CC2)C1 [Example 250, 1-(2-acetyl-2-azaspiro[3.5]nonan-7-yl)-3-(2-(difluoromethoxy)-6-methylpyridin-3-yl)-1-(2-isopropylphenyl)urea] | 100 to 1000 |  |

| SMILES | IC50 [1] [nM] | IC50 (LPAR1 IC50) [nM] |
| --- | --- | --- |
| CC(=O)N1CCC2(CC1)CC(N(C(=O)Nc1ccc(C)nc1OC(F)F)c1ccccc1C(C)C)C2 [Example 251, 1-(7-acetyl-7-azaspiro[3.5]nonan-2-yl)-3-(2-(difluoromethoxy)-6-methylpyridin-3-yl)-1-(2-isopropylphenyl)urea] | > 1000 |  |
| CC(C)Oc1ccc(NC(=O)N(c2ccccc2C(C)C)[C@H]2CC[C@H](C(=O)O)CC2)c(OC(C)C)n1 [Example 252, (1r,4r)-4-(3-(2,6-diisopropoxypyridin-3-yl)-1-(2-isopropylphenyl)ureido)cyclohexane-1-carboxylic acid] | 100 to 1000 |  |
| COc1ccc(NC(=O)N(c2ccccc2C(C)C)[C@H]2CC[C@H](C(=O)O)CC2)c(OCc2ccccc2)n1 [Example 253, (1r,4r)-4-(3-(2-(benzyloxy)-6-methoxypyridin-3-yl)-1-(2-isopropylphenyl)ureido)cyclohexane-1-carboxylic acid] | 10 to 100 |  |
| COc1ccc(NC(=O)N(c2ccccc2C(C)C)[C@H]2CC[C@H](C(=O)O)CC2)c(O)n1 [Example 254] | > 1000 |  |
| Cc1ccc(NC(=O)N(c2ccccc2C(C)C)[C@H]2CC[C@@H](S(C)(=O)=O)CC2)c(OC(F)F)n1 [Example 255, 3-(2-(difluoromethoxy)-6-methylpyridin-3-yl)-1-(2-isopropylphenyl)-1-((1s,4s)-4-(methylsulfonyl)cyclohexyl)urea] | 10 to 100 |  |
| Cc1ccc(NC(=O)N(c2ccccc2C(C)C)[C@H]2CC[C@H](S(C)(=O)=O)CC2)c(OC(F)F)n1 [Example 256, 3-(2-(difluoromethoxy)-6-methylpyridin-3-yl)-1-(2-isopropylphenyl)-1-((1r,4r)-4-(methylsulfonyl)cyclohexyl)urea] | 100 to 1000 |  |
| COc1ccc(NC(=O)N(c2ccccc2C(C)C)[C@H]2CC[C@@H](S(C)(=O)=O)CC2)c(OC(F)F)n1 [Example 257, 3-(2-(difluoromethoxy)-6-methoxypyridin-3-yl)-1-(2-isopropylphenyl)-1-((1s,4s)-4-(methylsulfonyl)cyclohexyl)urea] | < 10 |  |
| COc1ccc(NC(=O)N(c2ccccc2C(C)C)[C@H]2CC[C@H](S(C)(=O)=O)CC2)c(OC(F)F)n1 [Example 258, 3-(2-(difluoromethoxy)-6-methoxypyridin-3-yl)-1-(2-isopropylphenyl)-1-((1r,4r)-4-(methylsulfonyl)cyclohexyl)urea] | 100 to 1000 |  |
| CC(C)Oc1ccc(NC(=O)N(c2ccccc2C(C)C)[C@H]2CC[C@H](C(=O)O)CC2)c(OCC(F)F)n1 [Example 259, (1r,4r)-4-(3-(2-(2,2-difluoroethoxy)-6-isopropoxypyridin-3-yl)-1-(2-isopropylphenyl)ureido)cyclohexane-1-carboxylic acid] | 10 to 100 |  |
| Cc1ccc(NC(=O)N(c2ccccc2C(C)C)[C@H]2CC[C@@H](c3cccnc3)CC2)c(OC(F)F)n1 [Example 260, 3-(2-(difluoromethoxy)-6-methylpyridin-3-yl)-1-(2-isopropylphenyl)-1-((1s,4s)-4-(pyridin-3-yl)cyclohexyl)urea] | > 1000 |  |
| Cc1ccc(NC(=O)N(c2ccccc2C(C)C)[C@H]2CC[C@H](c3cccnc3)CC2)c(OC(F)F)n1 [Example 261, 3-(2-(difluoromethoxy)-6-methylpyridin-3-yl)-1-(2-isopropylphenyl)-1-((1r,4r)-4-(pyridin-3-yl)cyclohexyl)urea] | 100 to 1000 |  |
| [2H]C([2H])([2H])Oc1ccc(NC(=O)N(c2ccccc2C(C([2H])([2H])[2H])C([2H])([2H])[2H])[C@H]2CC[C@H](C(=O)O)CC2)c(OC(F)F)n1 [Example 262] | < 10 |  |
| CC(=O)N(C(C)=O)[C@H]1CC[C@@H](N(C(=O)Nc2ccc(C)nc2OC(F)F)c2ccccc2C(C)C)CC1 [Example 264, N-acetyl-N-((1s,4s)-4-(3-(2-(difluoromethoxy)-6-methylpyridin-3-yl)-1-(2-isopropylphenyl)ureido)-cyclohexyl)acetamide] | 100 to 1000 |  |
| CC(=O)N(C(C)=O)[C@H]1CC[C@H](N(C(=O)Nc2ccc(C)nc2OC(F)F)c2ccccc2C(C)C)CC1 [Example 265, N-acetyl-N-((1r,4r)-4-(3-(2-(difluoromethoxy)-6-methylpyridin-3-yl)-1-(2-isopropylphenyl)ureido)-cyclohexyl)acetamide] | > 1000 |  |
| CC(=O)N[C@H]1CC[C@@H](N(C(=O)Nc2ccc(C)nc2OC(F)F)c2ccccc2C(C)C)CC1 [Example 266, N-((1s,4s)-4-(3-(2-(difluoromethoxy)-6-methylpyridin-3-yl)-1-(2-isopropylphenyl)ureido)cyclohexyl)acetamide] | 100 to 1000 |  |
| CC(=O)N[C@H]1CC[C@H](N(C(=O)Nc2ccc(C)nc2OC(F)F)c2ccccc2C(C)C)CC1 [Example 267, N-((1r,4r)-4-(3-(2-(difluoromethoxy)-6-methylpyridin-3-yl)-1-(2-isopropylphenyl)ureido)cyclohexyl)acetamide] | 10 to 100 |  |
| Cc1ccc(NC(=O)N(c2ccccc2C(C)C)C2CCC(NC(=O)c3nccs3)CC2)c(OC(F)F)n1 (stereo not drawn) [Example 268, N-(4-(3-(2-(difluoromethoxy)-6-methylpyridin-3-yl)-1-(2-isopropylphenyl)ureido)cyclohexyl)thiazole-2-carboxamide] | 100 to 1000 |  |
| Cc1ccc(NC(=O)N(c2ccccc2C(C)C)C2CCC(NS(C)(=O)=O)CC2)c(OC(F)F)n1 (stereo not drawn) [Example 269, N-(4-(3-(2-(difluoromethoxy)-6-methylpyridin-3-yl)-1-(2-isopropylphenyl)ureido)cyclohexyl)methanesulfonamide] | 10 to 100 |  |
| CC(=O)NC1CC(N(C(=O)Nc2ccc(C)nc2OC(F)F)c2ccccc2C(C)C)C1 (stereo not drawn) [Example 271, N-(3-(3-(2-(difluoromethoxy)-6-methylpyridin-3-yl)-1-(2-isopropylphenyl)ureido)cyclobutyl)acetamide] | 100 to 1000 |  |
